The values that follow come from patent US20100119502A1, “THERAPY REGIMENS, DOSING REGIMENS AND STABLE MEDICAMENTS FOR THE TREATMENT OF POMPE DISEASE” (AMICUS THERAPEUTICS, INC., priority 2008, published 2010).

The subject of series [1] is GAA KO mouse. Description: GAA enzyme activity in heart and diaphragm of GAA KO mouse (rhGAA uptake). In kind it is in vivo. Conditions: rhGAA co-administered with 1-DNJ-HCl vs ERT monotherapy. Here is the method:
Heart and Diaphragm tissue homogenates were harvested and rhGAA activity was measured using the fluorogenic substrate (4-MUG).

For series [2], the target named is T1, rhGAA (Myozyme™) (Homo sapiens, UniProt P10253).
T1 construct: purchased Genzyme Corp; host or cells: Chinese hamster ovary cell line
Description: rhGAA enzyme inactivation in citrate anti-coagulated whole blood at 37° C. In kind it is in vitro ADME. The settings on record: for rhGAA enzyme inactivated: whole blood 37° C., no 1-DNJ-HCl. Here is the method:
Aliquots were collected at 0, 2, 4, 8 and 24 hrs and centrifuged to obtain plasma. These plasma samples were then diluted in potassium acetate buffer (pH 4.0) and assayed for GAA activity using the 4-methylumbeliferyl-α-glucose (4-MUG) fluorogenic substrate. The measured GAA activity for individual samples at each time point was normalized to the 0 hr and expressed as % of initial activity. Data from 4 independent experiments were analyzed to obtain the mean (and standard deviation) and plotted versus time to assess the loss of enzyme activity over this time course.
Aliquots were collected at 0, 3 and 6 hrs and centrifuged to obtain plasma. These plasma samples were then diluted in potassium acetate buffer (pH 4.0) and assayed for GAA activity using the 4-methylumbeliferyl-a-glucose (4-MUG) fluorogenic substrate. The measured GAA activity for individual samples at each time point was normalized to the 0 hr and expressed as % of initial activity.
Based on human plasma PK data, these concentrations are readily obtainable in the clinic.

Series [3] concerns the target T2, recombinant human GAA (Myozyme®, Genzyme Corp.) (Homo sapiens, UniProt P10253).
T2 construct: purchased Genzyme Corp; host or cells: Chinese hamster ovary cell line
Description: SYPRO Orange thermal stability assay of rhGAA. In kind it is binding. From the text: The thermal stability assay utilizes heat to induce protein denaturation, which is monitored using a SYPRO Orange dye that fluoresces upon binding to hydrophobic amino acids (which are not exposed in a folded protein).
FIG. 2B depicts a parallel SYPRO Orange thermal stability experiment to determine if the loss of enzyme activity shown in FIG. 2A, particularly the loss of Myozyme activity at ER pH (7.4), correlates with protein unfolding and denaturation. […]
Denaturation is monitored using a SYPRO Orange dye that fluoresces upon binding to hydrophobic amino acids (which are not exposed in a folded protein).
The thermal stability was performed at pH 7.4 for two formulations, which corresponds to the pH of the ER.
In order to determine if loss of initial enzyme activity is correlated to failure to maintain a proper conformation, a SYPRO Orange thermal stability experiment was performed on the samples above as generally described in Example 1. […] Based on this experiment, the % of GAA folded was estimated and plotted in FIG. 2B. […]

The subject of series [4] is GAA KO mice. Nature of the series: In vivo uptake of Myozyme in GAA KO mice with and without oral 1-DNJ-HCl (4-MUG tissue GAA activity). An excerpt:
Enzymatic activity as determined using a 4-MUG fluorogenic substrate assay.

The test system of series [5] is GAA KO mice. Nature of the series: Tissue glycogen reduction in GAA KO mice. It counts as in vivo. The settings on record: Myozyme co-administered with 30 mg/kg 1-DNJ-HCl. Here is the method:
To prevent anaphylaxis, before the third and fourth Myozyme™ injection, diphenhydramine (10 mg/kg intraperitoneally) was administered 10 min before Myozyme™ injection. […] Mice were euthanized 14 days after the last Myozyme™ administration. Glycogen levels in heart, diaphragm, soleus, and quadriceps were then measured. […] Supernatants were heat denatured (99° C. for 10 min) to remove endogenous amyloglucosidase activity. […] The reaction was stopped by inactivation at 100° C. for 10 min. […] Simultaneously, the amount of protein was determined in tissue homogenates using the Micro BCA Protein Assay (Pierce, Rockford, Ill.) following the manufacturer's instructions. The glycogen content of each sample was normalized to protein, and data were finally expressed as micrograms of glycogen per milligram of protein (μg/mg protein).

For series [6] the following is noted: stored at 2 to 8° C.; cited from earlier work.

Entries after “also recorded” stand apart in the source; their conditions may differ. Where a name gives a salt, the structure may show the parent alone.

Consider `OC[C@H]1NC[C@H](O)[C@@H](O)[C@@H]1O` [1-DNJ-HCl, 1-deoxynorjirimycin hydrochloride], for which the “rhGAA uptake in the heart and diaphragm (GAA activity)” value in series [1] was “increased”. For the same compound, the “stabilizing rhGAA and preventing enzyme inactivation in whole blood” value in series [2] (high 1-DNJ-HCl concentrations (50 and 100 μM)) was “best for stabilizing rhGAA and preventing enzyme inactivation”. Moreover, the “rhGAA activity in whole blood” value in series [2] (rhGAA with 50 μM 1-DNJ-HCl, 37° C., up to 24 hrs) is “remained completely active”. Moreover, in series [3] (37° C. over 24 hours, Myozyme 0.9 μM, pH 7.4, with or without 100 μM 1-DNJ-HCl), the “GAA folding / denaturation (% of GAA folded)” value is “can prevent GAA denaturation and loss of enzyme activity”. For the same compound, the “stability of rhGAA (heat required to denature)” value in series [3] (pH 7.4, Myozyme plus 100 μM 1-DNJ-HCl vs Myozyme alone, hydrochloride) is on record as “required significantly more heat to denature; also recorded: significantly increased”. The “Myozyme tissue uptake (as a measure of GAA activity) with coadministered 1-DNJ-HCl” value in series [4] (Myozyme 10 mg/kg IV weekly up to 3 weeks plus 10, 100, 1000 mg/kg oral 1-DNJ-HCl) is “dose-dependent increase in Myozyme uptake”. The “tissue glycogen reduction compared to Myozyme alone” value in series [5] is listed as “significantly greater tissue glycogen reduction”.
In the case of “Myozyme: alglucosidase alfa, human acid α-glucosidase produced by recombinant DNA technology in a Chinese hamster ovary cell line (Genzyme)”, the rhGAA enzyme inactivated result in series [2] (by 4 hrs) is on record as “approximately 40%”; in series [2] (by 8 hrs), about 70%; in series [2] (by 24 hrs), about 100%. Also, in series [3] (Myozyme alone, pH 5.2 vs pH 7.4), the “stability of rhGAA by pH” value was “much more stable at lysosomal pH (5.2) than at ER pH (7.4)”. Further, the “Myozyme tissue uptake (as a measure of GAA activity)” value in series [4] (Myozyme 10 mg/kg IV weekly, 7 days post injection) is “declined at 7 days post injection”. For the same compound, the “time the product is stable on storage” value in series [6] is given as “up to 24 hours”.
